Measured values reported in patent US6833373B1, “Method of using an integrin antagonist and one or more antineoplastic agents as a combination therapy in the treatment of neoplasia” (G.D. Searle & Co., priority 1998, dated 2004).

Tests used:
human U251 glioblastoma = assay: U251 glioblastoma model; type: in vivo, SCID mice; conditions: for tumor growth (mean tumor volume with time): compound I7 10 mg/kg BID PO day 14-44, BCNU 12 mg/kg once a day on days 14, 18 and 22
Experimental: compound I7 was evaluated in the human U251 glioblastoma model. The tumors were implanted onto the flanks of SCID mice and the mean tumor volume with time was calculated. […] These clinically relevant measurements of antitumor efficacy establish the antitumor efficacy of compound I7, especially when combined with standard of care chemotherapeutic agents.

[1] = 15 mg/kg/day, biliary cirrhosis trials; cited from earlier work
[2] = system: Lewis Lung carcinoma (LLC); assay: Lewis Lung carcinoma (LLC) model; conditions: for growth of the LLC tumor (primary tumor mass): compound I7 1 and 10 mg/kg BID PO from day 1, cisplatin single ip dose 10 mg/kg on day 5; for median survival time: compound I7 at 10 mg/kg
Experimental: Tumor cells for implantation were taken from cells either grown in tissue culture (Leydig, M21) or serially passaged as tumors in mice and prepared as tumor brei (LLC). […] Tumor volumes were measured at intervals over the course of the experiments. Tumors were measured with a vernier caliper and volumes were determined using the formula for the volume of a cylinder: tumor volume=width^2×length×0.52. […] On the final day of the experiment, tumors were dissected free and weighed. The data are expressed as the mean +/− SEM. Student's and Mann-Whitney tests were used to assess differences between means or medians using the InStat software package.

lung tumors = assay: Implanted tumor cells, lung tumors in mice, compound I7 with or without cisplatin; type: in vivo; conditions: compared to the control groups; lung tumors greater than 2,000 mm^3
From the text: In an additional experiment, tumor cells were implanted into mice; lung tumors of volumes greater than 2,000 mm^3 were developed. The mice were then separated into four groups, including a control group and three treatment groups: compound I7 alone; compound I7 with cisplatin (a cytotoxic drug); or cisplatin alone. Compared to the control groups, the mice treated with combination compound I7/cisplatin therapy experienced more than an 80 percent reduction in tumor size. In comparison, the group receiving cisplatin alone experienced 50 percent reductions in tumor size and the compound I7 group experienced 20-30 percent reductions. These studies indicate that compound I7 has prominent anti-tumor activity.

[3] = system: Rice 500 rat Leydig testicular tumor; assay: Rice 500 rat Leydig testicular tumor model; type: in vivo, SCID mice; conditions: for survival compared to vehicle treated controls: single agents, p<0.05
Experimental: The Rice 500 rat Leydig testicular tumor grows very quickly when implanted into the flank of SCID mice. […] Tumor growth was reduced by about 50% at the […] dose in this aggressive model. […] Similar to the results seen in the M21 tumor model, compound I7 increased the effects of cisplatin in the Leydig tumor model. […] In a similar experiment, the effects of compound I7, cisplatin and the combination were evaluated for potentiation of overall survival in the Leydig tumor mice. Survival was increased by either compound I7 or cisplatin alone when compared to vehicle treated controls (p<0.05). More importantly, the combination of the two agents almost doubled overall survival (from 17 to 29 days) (p<0.0l combination vs. cisplatin, p<0.001 combination vs. control). Thus, the ability of compound I7 to work alone or in combination therapy to prevent tumor growth clearly correlates with enhanced survival.

[4] = system: A2780 human ovarian carcinoma; assay: A2780 mouse model; type: in vivo, SCID mice; conditions: compound I7 10 mg/kg BID PO; cisplatin 10 mg/kg ip once on day 20
From the text: compound I7 prevents the growth of human ovarian carcinoma in SCID mice. […] Survival studies are now underway to characterize the survival benefit of combination therapy in this model.

[5] = system: 435/GFP HAL-1 (MDA-MB-435 breast carcinoma) cells; assay: Metastasis model, 435/GFP HAL-1 orthotopic implantation; type: in vivo, SCID mice; conditions: for reduction in lung metastatic burden: eight weeks
From the text: Accurate quantitation of early-stage metastasis in animal models is typically hampered by the lack of sensitive and convenient assays to detect low numbers of tumor cells in a background of normal tissue. Quantitation of late-stage metastasis by counting of visible foci or comparison of organ weights requires substantial tumor burden which can take 3-4 months to develop in conventional models of breast cancer, and generally cannot detect subtle differences. […] The GFP-transfected cells are easily detected by flow cytometry, and fixation of the cells or the addition of antibodies or exogenous substrates is not required. A highly aggressive clone was isolated from the lung of a SCID mouse implanted in the mammary fat pad with several GFP-expressing clones. […] Eight weeks later, lungs were removed and weighed.

[6] = system: angiogenesis induced by bFGF or VEGF; assay: Corneal micropocket assay; type: in vivo, female C57BL6 mice; conditions: BID
From the text: In this model, an intrastromal pocket is surgically created in the normally avascular cornea of female C57BL6 mice 1 mm distance from the corneal-scleral junction. A slow release hydron polymer pellet containing an angiogenic growth factor (bFGF or VEGF) is inserted into the corneal pocket. The pocket is self sealing and antibiotic ointment is placed in the eye.

[7] = system: Cancer cells implanted subcutaneously; conditions: large-volume tumors (>1,500 mm^3); dose dependent; cited from earlier work
M21 human melanoma cells = assay: M21 human melanoma model; type: in vivo, SCID mice
Experimental: In the M21 model, M21 human melanoma cells implanted subcutaneously into SCID mice developed tumors which grew to approximately 400 mm^3 within 30 days. […] Cisplatin was administered once by ip injection (10 mg/kg) on day 14. […] The results of this dose sequencing experiment establish the efficacy of compound I7 in combination therapy with cisplatin when administered before, concurrent with, or after cisplatin dosing.

In the case of `O=NN(CCCl)C(=O)NCCCl` [BCNU, carmustine], the “tumor growth (mean tumor volume with time)” value (human U251 glioblastoma) is reported as “regression of the tumors to the limit of detectability, but the tumors grew back” and the “duration of the response” value (human U251 glioblastoma; p<0.01) is reported as 5 days.
In the case of `C[C@H](CCC(=O)O)[C@H]1CC[C@H]2[C@@H]3[C@@H](O)C[C@@H]4C[C@H](O)CC[C@]4(C)[C@H]3CC[C@]12C` [URSO, Ursodeoxycholate], the tolerability [1] is listed as “extremely well tolerated and without toxicity”.
For `N.N.[Cl][Pt][Cl]` [cisplatin, reference compound], the “time to develop a tumor >500 mm^3” value ([2]; cisplatin 10 mg/kg ip day 5, compound I7 10 mg/kg) was 22.4 days, the “growth of the LLC tumor (primary tumor mass)” value [2] was “significantly retarded the growth” and the median survival time ([2]; cisplatin 10 mg/kg ip day 5) was 33 days. For the same compound, the “reduction in tumor size” value (lung tumors) was 50%, the “survival compared to vehicle treated controls” value [3] was “increased” and the tumor growth [4] was “decreasing tumor growth”.
With `O=C(O)C[C@@H](NC(=O)CNC(=O)c1cc(O)cc(NC2=NCC(O)CN2)c1)c1cc(Cl)cc(Br)c1O` (stereo partly drawn) [compound I7, (3R)-N-[3-hydroxy-5-[(1,4,5,6-tetrahydro-5-hydroxy-2-pyrimidinyl)amino]benzoyl]glycyl-3-(3-bromo-5-chloro-2-hydroxyphenyl)-b-alanine] the “tumor growth (mean tumor volume with time)” value (human U251 glioblastoma) was “little inhibition of tumor growth”, the “growth of the LLC tumor (primary tumor mass)” value [2] was “did not affect the growth” and the median survival time ([2]; cisplatin 10 mg/kg ip day 5) was 33 days. The “reduction in tumor size” value (lung tumors) was 20-30%, the “reduction in lung metastatic burden” value ([5]; 10 mg/kg BID orally) was 55% and the “reduction in lung metastatic burden” value ([5]; 30 mg/kg BID orally) was 69%. For the same compound, the “spontaneous metastasis of 435 breast carcinoma cells to the lungs” value ([5]; 1, 10 and 30 mg/kg BID orally, visual counting or flow cytometry) was “dose-dependently reduced”, the “growth of the primary tumor mass” value ([5]; mouse, in vivo) was “did not delay the growth” and the “histological examination of lung sections” value ([5]; mouse, in vivo) was “dramatic reduction in the number of large macroscopic metastases and an increase in the presence of microscopic foci of metastases”. For the same compound, the “angiogenesis induced by either bFGF or VEGF” value [6] was “inhibited angiogenesis”, the “inhibition of the angiogenic response” value ([6]; maximal inhibitory activity at 10 mg/kg BID orally) was “up to 42%” and the tumor growth reduced ([3]; 2 mg/ml dose in drinking water) was “about 50%”. The “inhibition of tumor growth” value ([3]; compound I7 10 or 100 mg/kg BID PO from day 5, monotherapy or with cisplatin 10 mg/kg ip once day 5, p<0.01 vs control) was “Dose-related inhibition of tumor growth”, the tumor growth ([3]; in the drinking water at 0.02 to 2 mg/ml) was “inhibited tumor growth dose-dependently” and the “survival compared to vehicle treated controls” value [3] was “increased”. The tumor growth [4] was “equally effective as cisplatin”, the reduced tumor growth [7] was at most 85% and the “time to tumor volume >200 mm^3” value (M21 human melanoma cells; 10 mg/kg) was 27 days. For the same compound, the “growth of M21 tumors” value (M21 human melanoma cells; oral BID, at time of tumor implantation or beginning up to 21 days after) was “dose-dependently retarded the growth”.
